In patent US20210122739A1, “NOVEL SULFONAMIDE CARBOXAMIDE COMPOUNDS” (Inflazome Limited, priority 2017, published 2021):

What follows are molecules tested against NLRP3 (Homo sapiens, UniProt Q96P20) (assay: THP-1 cells pyroptosis assay). Conditions: 1.0 μg/ml LPS, nigericin 5 μM, resazurin readout.
Sequence of NLRP3 (Q96P20 whole entry): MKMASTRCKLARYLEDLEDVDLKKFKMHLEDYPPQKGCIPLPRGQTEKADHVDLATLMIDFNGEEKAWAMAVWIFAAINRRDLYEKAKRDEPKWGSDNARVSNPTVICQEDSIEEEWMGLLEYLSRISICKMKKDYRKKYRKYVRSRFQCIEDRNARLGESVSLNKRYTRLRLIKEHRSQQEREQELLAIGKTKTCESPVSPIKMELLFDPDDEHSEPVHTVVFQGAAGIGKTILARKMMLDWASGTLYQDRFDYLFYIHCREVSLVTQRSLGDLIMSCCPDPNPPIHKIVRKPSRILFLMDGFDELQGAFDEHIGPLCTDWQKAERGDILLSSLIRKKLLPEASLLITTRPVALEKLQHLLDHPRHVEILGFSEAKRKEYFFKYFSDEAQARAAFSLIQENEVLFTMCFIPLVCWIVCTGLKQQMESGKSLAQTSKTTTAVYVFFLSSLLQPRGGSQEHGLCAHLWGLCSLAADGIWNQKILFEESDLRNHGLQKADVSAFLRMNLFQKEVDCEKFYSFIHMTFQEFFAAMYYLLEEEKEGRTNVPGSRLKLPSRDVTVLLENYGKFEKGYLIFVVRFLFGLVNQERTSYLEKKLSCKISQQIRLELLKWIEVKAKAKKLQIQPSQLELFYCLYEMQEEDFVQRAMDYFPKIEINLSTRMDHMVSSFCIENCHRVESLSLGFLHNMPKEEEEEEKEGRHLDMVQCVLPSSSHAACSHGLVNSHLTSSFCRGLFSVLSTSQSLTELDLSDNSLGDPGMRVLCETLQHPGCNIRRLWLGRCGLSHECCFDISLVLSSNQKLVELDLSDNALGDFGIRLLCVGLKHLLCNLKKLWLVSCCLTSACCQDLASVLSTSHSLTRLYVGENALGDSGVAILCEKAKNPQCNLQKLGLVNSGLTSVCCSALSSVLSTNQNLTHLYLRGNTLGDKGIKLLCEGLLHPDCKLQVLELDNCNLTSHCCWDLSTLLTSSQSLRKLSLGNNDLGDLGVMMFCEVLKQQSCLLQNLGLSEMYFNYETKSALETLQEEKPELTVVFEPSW
Type: cell-based
Parameters: Seed THP-1 cells (25,000 cells/well) containing 1.0 μg/ml LPS; host or cells: THP-1 cells, LPS-primed, nigericin-stimulated
From the text: It is well established that the activation of NLRP3 leads to cell pyroptosis and this feature plays an important part in the manifestation of clinical disease (Yan-gang Liu et al., Cell Death & Disease, 2017, 8(2), e2579; Alexander Wree et al., Hepatology, 2014, 59(3), 898-910; Alex Baldwin et al., Journal of Medicinal Chemistry, 2016, 59(5), 1691-1710; Ema Ozaki et al., Journal of Inflammation Research, 2015, 8, 15-27; Zhen Xie & Gang Zhao, Neuroimmunology Neuroinflammation, 2014, 1(2), 60-65; Mattia Cocco et al., Journal of Medicinal Chemistry, 2014, 57(24), 10366-10382; T. Satoh et al., Cell Death & Disease, 2013, 4, e644). Therefore, it is anticipated that inhibitors of NLRP3 will block pyroptosis, as well as the release of pro-inflammatory cytokines (e.g. IL-1β) from the cell.
THP-1 cells (ATCC #TIB-202) were grown in RPMI containing L-glutamine (Gibco #11835) supplemented with 1 mM sodium pyruvate (Sigma #S8636) and penicillin (100 units/ml)/streptomycin (0.1 mg/ml) (Sigma #P4333) in 10% Fetal Bovine Serum (FBS) (Sigma #F0804). The cells were routinely passaged and grown to confluency (˜10^6 cells/ml). On the day of the experiment, THP-1 cells were harvested and resuspended into RPMI medium (without FBS). The cells were then counted and viability (>90%) checked by Trypan blue (Sigma #T8154). Appropriate dilutions were made to give a concentration of 625,000 cells/ml. To this diluted cell solution was added LPS (Sigma #L4524) to give a 1 μg/ml Final Assay Concentration (FAC). 40 μl of the final preparation was aliquoted into each well of a 96-well plate. The plate thus prepared was used for compound screening.
The following method step-by-step assay was followed for compound screening. • 1. Seed THP-1 cells (25,000 cells/well) containing 1.0 μg/ml LPS in 40 μl of RPMI medium (without FBS) in 96-well, black walled, clear bottom cell culture plates coated with poly-D-lysine (VWR #734-0317) • 2. Add […] compound (8 points half-log dilution, with 10 μM top dose) or vehicle (DMSO 0.1% FAC) to the appropriate wells • 3. Incubate for 3 hrs at 37° C. in 5% CO2 • 4. Add 5 μl nigericin (Sigma #N7143) (FAC 5 μM) to all wells • 5. Incubate for 1 hr at 37° C. and 5% CO2 • 6. At the end of the incubation period, spin plates at 300×g for 3 mins and remove supernatant • 7. Then add 50 μl of resazurin (Sigma #R7017) (FAC 100 μM resazurin in RPMI medium without FBS) and incubate plates for a further 1-2 hrs at 37° C. and 5% CO2 • 8. Plates were read in an Envision reader at Ex 560 nm and Em 590 nm • 9. IC50 data is fitted to a non-linear regression equation (log inhibitor vs response-variable slope 4-parameters)
In the case of `Cn1nc(S(=O)(=O)NC(=O)Nc2c3c(cc4c2CCC4)CCC3)cc1C(=O)N1CC(F)C1` [Example 61, 5-(3-Fluoroazetidine-1-carbonyl)-N-((1,2,3,5,6,7-hexahydro-s-indacen-4-yl)carbamoyl)-1-methyl-1H-pyrazole-3-sulfonamide], the IC50 is reported as 640 to 2560 nM.
With `CC(C)NC(=O)c1cc(S(=O)(=O)NC(=O)Nc2c(C(C)C)cccc2C(C)C)nn1C` [Example 38, 3-(N-((2,6-Diisopropylphenyl)carbamoyl)sulfamoyl)-N-isopropyl-1-methyl-1H-pyrazole-5-carboxamide] the IC50 was 2560 to 10000 nM.
For `CC(C)c1cccc(C(C)C)c1NC(=O)NS(=O)(=O)c1cc(C(=O)N2CCOCC2)n(C)n1` [Example 21, N-((2,6-Diisopropylphenyl)carbamoyl)-1-methyl-5-(morpholine-4-carbonyl)-1H-pyrazole-3-sulfonamide], the IC50 was 640 to 2560 nM.
`CC(=O)NCCN(C)C(=O)c1cc(S(=O)(=O)NC(=O)Nc2c3c(cc4c2CCC4)CCC3)nn1C` [Example 13, N-(2-Acetamidoethyl)-3-(N-((1,2,3,5,6,7-hexahydro-s-indacen-4-yl)carbamoyl)sulfamoyl)-N,1-dimethyl-1H-pyrazole-5-carboxamide] was tested, and the IC50 was 2560 to 10000 nM.
`CN(C(=O)c1cc(S(=O)(=O)NC(=O)Nc2c3c(cc4c2CCC4)CCC3)nn1C)C1CCCC1` [Example 11, N-Cyclopentyl-3-(N-((1,2,3,5,6,7-hexahydro-s-indacen-4-yl)carbamoyl)sulfamoyl)-N,1-dimethyl-1H-pyrazole-5-carboxamide] gave an IC50 of 640 to 2560 nM.
With `COCCN(CCOC)C(=O)c1cc(S(=O)(=O)NC(=O)Nc2c(C(C)C)cccc2C(C)C)nn1C` [Example 23, 3-(N-((2,6-Diisopropylphenyl)carbamoyl)sulfamoyl)-N,N-bis(2-methoxyethyl)-1-methyl-1H-pyrazole-5-carboxamide] the IC50 was 2560 to 10000 nM.
Work on `CC(=O)N1CC(n2ccc(S(=O)(=O)NC(=O)Nc3c4c(cc5c3CCC5)CCC4)n2)C1` [Example 3, 1-(1-Acetylazetidin-3-yl)-N-((1,2,3,5,6,7-hexahydro-s-indacen-4-yl)carbamoyl)-1H-pyrazole-3-sulfonamide] yielded an IC50 of 640 to 2560 nM.
`CN(C(=O)c1cc(S(=O)(=O)NC(=O)Nc2c3c(cc4c2CCC4)CCC3)nn1C)C1CCOCC1` [Example 14, 3-(N-((1,2,3,5,6,7-Hexahydro-s-indacen-4-yl)carbamoyl)sulfamoyl)-N,1-dimethyl-N-(tetrahydro-2H-pyran-4-yl)-1H-pyrazole-5-carboxamide] gave an IC50 of 2560 to 10000 nM.
Work on `CN(C)CCN(C)C(=O)c1cc(S(=O)(=O)NC(=O)Nc2c3c(cc4c2CCC4)CCC3)nn1C` [Example 10, N-(2-(Dimethylamino)ethyl)-3-(N-((1,2,3,5,6,7-hexahydro-s-indacen-4-yl)carbamoyl)sulfamoyl)-N,1-dimethyl-1H-pyrazole-5-carboxamide] yielded an IC50 of 640 to 2560 nM.
`CCN(CC)C(=O)c1cc(S(=O)(=O)NC(=O)Nc2c(C(C)C)cccc2C(C)C)nn1C` [Example 57, 3-(N-((2,6-Diisopropylphenyl)carbamoyl)sulfamoyl)-N,N-diethyl-1-methyl-1H-pyrazole-5-carboxamide] showed an IC50 of 640 to 2560 nM.
Work on `COCCN(C)C(=O)c1cc(S(=O)(=O)NC(=O)Nc2c(C(C)C)cccc2C(C)C)nn1C` [Example 22, 3-(N-((2,6-Diisopropylphenyl)carbamoyl)sulfamoyl)-N-(2-methoxyethyl)-N,1-dimethyl-1H-pyrazole-5-carboxamide] yielded an IC50 of 2560 to 10000 nM.
`COCCNC(=O)c1cc(S(=O)(=O)NC(=O)Nc2c3c(cc4c2CCC4)CCC3)nn1C` [Example 77, 3-(N-((1,2,3,5,6,7-Hexahydro-s-indacen-4-yl)carbamoyl)sulfamoyl)-N-(2-methoxyethyl)-1-methyl-1H-pyrazole-5-carboxamide] showed an IC50 of 2560 to 10000 nM.
`CC(C)c1cccc(C(C)C)c1NC(=O)NS(=O)(=O)c1cc(C(=O)N(C)C2CCC2)n(C)n1` [Example 8, N-Cyclobutyl-3-(N-((2,6-diisopropylphenyl)carbamoyl)sulfamoyl)-N,1-dimethyl-1H-pyrazole-5-carboxamide] showed an IC50 of 640 to 2560 nM.
Work on `CN(CC(O)CO)C(=O)c1cc(S(=O)(=O)NC(=O)Nc2c3c(cc4c2CCC4)CCC3)nn1C` (stereo not drawn) [Example 19, N-(2,3-Dihydroxypropyl)-3-(N-((1,2,3,5,6,7-hexahydro-s-indacen-4-yl)carbamoyl)sulfamoyl)-N,1-dimethyl-1H-pyrazole-5-carboxamide] yielded an IC50 of 640 to 2560 nM.
With `Cn1nc(S(=O)(=O)NC(=O)Nc2c3c(cc4c2CCC4)CCC3)cc1C(=O)N1CCCC1` [Example 59, N-((1,2,3,5,6,7-Hexahydro-s-indacen-4-yl)carbamoyl)-1-methyl-5-(pyrrolidine-1-carbonyl)-1H-pyrazole-3-sulfonamide] the IC50 was 640 to 2560 nM.
Work on `CN(CCC#N)C(=O)c1cc(S(=O)(=O)NC(=O)Nc2c3c(cc4c2CCC4)CCC3)nn1C` [Example 9, N-(2-Cyanoethyl)-3-(N-((1,2,3,5,6,7-hexahydro-s-indacen-4-yl)carbamoyl)sulfamoyl)-N,1-dimethyl-1H-pyrazole-5-carboxamide] yielded an IC50 of 160 to 640 nM.
`Cn1nc(S(=O)(=O)NC(=O)Nc2c3c(cc4c2CCC4)CCC3)cc1C(=O)N1CCOCC1` [Example 28, N-((1,2,3,5,6,7-Hexahydro-s-indacen-4-yl)carbamoyl)-1-methyl-5-(morpholine-4-carbonyl)-1H-pyrazole-3-sulfonamide] was tested, and the IC50 was 640 to 2560 nM.
Work on `CC(C)c1ccc(-c2cncnc2)cc1NC(=O)NS(=O)(=O)c1cc(C(=O)N(C)C)n(C)n1` [Example 34, 3-(N-((2-Isopropyl-5-(pyrimidin-5-yl)phenyl)carbamoyl)sulfamoyl)-N,N,1-trimethyl-1H-pyrazole-5-carboxamide] yielded an IC50 of 640 to 2560 nM.
In the case of `CN1CCn2nc(S(=O)(=O)NC(=O)Nc3c4c(cc5c3CCC5)CCC4)cc2C1=O` [Example 4, N-((1,2,3,5,6,7-Hexahydro-s-indacen-4-yl)carbamoyl)-5-methyl-4-oxo-4,5,6,7-tetrahydropyrazolo[1,5-a]pyrazine-2-sulfonamide], the IC50 is reported as 2560 to 10000 nM.
With `CC(C)c1cccc(C(C)C)c1NC(=O)NS(=O)(=O)c1cc(C(=O)N(C)CC#N)n(C)n1` [Example 40, N-(Cyanomethyl)-3-(N-((2,6-diisopropylphenyl)carbamoyl)sulfamoyl)-N,1-dimethyl-1H-pyrazole-5-carboxamide] the IC50 was 2560 to 10000 nM.
Molecule `CC(=O)N1CCC(n2ccc(S(=O)(=O)NC(=O)Nc3c4c(cc5c3CCC5)CCC4)n2)CC1` [Example 5, 1-(1-Acetylpiperidin-4-yl)-N-((1,2,3,5,6,7-hexahydro-s-indacen-4-yl)carbamoyl)-1H-pyrazole-3-sulfonamide] has an IC50 of 2560 to 10000 nM.
In the case of `CNC(=O)c1cc(S(=O)(=O)NC(=O)Nc2c3c(cc4c2CCC4)CCC3)nn1C` [Example 66, 3-(N-((1,2,3,5,6,7-Hexahydro-s-indacen-4-yl)carbamoyl)sulfamoyl)-N,1-dimethyl-1H-pyrazole-5-carboxamide], the IC50 is reported as 640 to 2560 nM.
With `CC(C)c1cccc(C(C)C)c1NC(=O)NS(=O)(=O)c1cc(C(=O)N2CCCC2)n(C)n1` [Example 63, N-((2,6-Diisopropylphenyl)carbamoyl)-1-methyl-5-(pyrrolidine-1-carbonyl)-1H-pyrazole-3-sulfonamide] the IC50 was 640 to 2560 nM.
`CC(C)c1ccc(-c2cnn(C)c2)cc1NC(=O)NS(=O)(=O)c1cc(C(=O)N(C)C)n(C)n1` [Example 36, 3-(N-((2-Isopropyl-5-(1-methyl-1H-pyrazol-4-yl)phenyl)carbamoyl)sulfamoyl)-N,N,1-trimethyl-1H-pyrazole-5-carboxamide] gave an IC50 of 640 to 2560 nM.
